Measurements published in patent US10266535B2, “Inhibitor of FLT3 kinase and use thereof” (HEFEI INSTITUTES OF PHYSICAL SCIENCE, CHINESE ACADEMY OF …, priority 2015, dated 2019).
Structures can show the parent of a compound that is named as a salt. Where two headings read alike, the source gives them in different places.

Experiments:
BTK protein kinase = BTK protein kinase (Homo sapiens (Human), UniProt Q06187); experiment: In vitro inhibition activity (enzymatic activity), ADP-Glo, BTK; assay type: biochemical; conditions: ATP 10 μM
Chain of BTK protein kinase (Q06187 whole entry): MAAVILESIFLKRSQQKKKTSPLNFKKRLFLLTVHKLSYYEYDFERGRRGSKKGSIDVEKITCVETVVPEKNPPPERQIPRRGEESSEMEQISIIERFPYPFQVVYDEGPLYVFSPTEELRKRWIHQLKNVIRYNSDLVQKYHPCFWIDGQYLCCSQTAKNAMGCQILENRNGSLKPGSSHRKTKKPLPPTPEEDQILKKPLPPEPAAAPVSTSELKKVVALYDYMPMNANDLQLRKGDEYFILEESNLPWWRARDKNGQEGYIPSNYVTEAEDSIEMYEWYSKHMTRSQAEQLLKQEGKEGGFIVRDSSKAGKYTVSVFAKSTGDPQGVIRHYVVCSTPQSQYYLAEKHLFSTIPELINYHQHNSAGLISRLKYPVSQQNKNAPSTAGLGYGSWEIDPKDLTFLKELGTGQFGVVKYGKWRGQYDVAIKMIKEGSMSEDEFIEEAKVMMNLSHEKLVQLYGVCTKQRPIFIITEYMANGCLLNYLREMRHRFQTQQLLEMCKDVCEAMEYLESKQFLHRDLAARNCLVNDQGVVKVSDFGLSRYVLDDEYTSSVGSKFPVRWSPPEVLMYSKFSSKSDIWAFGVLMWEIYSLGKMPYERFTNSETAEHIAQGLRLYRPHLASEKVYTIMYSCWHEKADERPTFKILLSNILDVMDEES

[1] = tested on: TEL-BaF3-FLT3/ITD (stably expressing FLT3/ITD mutant activated kinase); experiment: Cell proliferation, Cell Titer-Glo, TEL-BaF3-FLT3/ITD; assay type: cell-based, mouse; conditions: incubated for 72 hours, read-out: TEL-BaF3-FLT3/ITD IC50
Protocol: (§1) The above cell lines were constructed by our laboratory.
(§2) The number of viable cells was determined by quantification of ATP in living cells using the Cell Titer-Glo® (Promega, USA) chemiluminescence cell viability assay kit.

[2] = tested on: MOLM-13 (expressing FLT3/ITD mutant gene and wild-type FLT3 gene); experiment: Cell proliferation, Cell Titer-Glo, MOLM-13; assay type: cell-based; conditions: Homo sapiens, MOLM-13; incubated for 72 hours; read-out: MOLM-13 IC50
Protocol: as §1, §2

[3] = tested on: TEL-BaF3-BMX (stably expressing BMX kinase); experiment: Cell proliferation, Cell Titer-Glo, TEL-BaF3-BMX; assay type: cell-based; conditions: Mus musculus; incubated for 72 hours
Protocol: as §1, §2

[4] = tested on: MOLM-14 (expressing FLT3/ITD mutant gene and wild-type FLT3 gene); experiment: Cell proliferation, Cell Titer-Glo, MOLM-14; assay type: cell-based; conditions: Homo sapiens, MOLM-14; incubated for 72 hours; read-out: MOLM-14 IC50
Protocol: as §1, §2

[5] = tested on: TEL-JAK1-BaF3 (stably expressing JAK1 kinase); experiment: Cell proliferation, Cell Titer-Glo, TEL-JAK1-BaF3; assay type: cell-based; conditions: Mus musculus; incubated for 72 hours
Protocol: as §1, §2

[6] = tested on: MV4-11 (expressing FLT3/ITD mutant gene); experiment: Cell proliferation, Cell Titer-Glo, MV4-11; assay type: cell-based; conditions: Homo sapiens, MV4-11; incubated for 72 hours; read-out: MV4-11 IC50
Protocol: as §1, §2

[7] = tested on: TEL-BaF3-BLK (stably expressing BLK kinase); experiment: Cell proliferation, Cell Titer-Glo, TEL-BaF3-BLK; assay type: cell-based; conditions: Mus musculus; incubated for 72 hours
Protocol: as §1, §2

[8] = tested on: TPR-MET-BaF3 (stably expressing MET kinase); experiment: Cell proliferation, Cell Titer-Glo, TPR-MET-BaF3; assay type: cell-based; conditions: Mus musculus; incubated for 72 hours
Protocol: as §1, §2

[9] = tested on: TEL-BaF3-FLT3-D835Y (stably expressing FLT3 D835Y mutant activated kinase); experiment: Cell proliferation, Cell Titer-Glo, TEL-BaF3-FLT3-D835Y; assay type: cell-based; conditions: Mus musculus; incubated for 72 hours; read-out: TEL-BaF3-FLT3-D835Y IC50
Protocol: as §1, §2

[10] = tested on: U937 (expressing wild-type FLT3 gene); experiment: Cell proliferation, Cell Titer-Glo, U937; assay type: cell-based, human; conditions: incubated for 72 hours, read-out: U937 IC50
Protocol: as §1, §2

[11] = tested on: TEL-cKIT-BaF3 (stably expressing cKIT kinase); experiment: Cell proliferation, Cell Titer-Glo, TEL-cKIT-BaF3; assay type: cell-based; conditions: Mus musculus; incubated for 72 hours
Protocol: as §1, §2

pro-B cell BaF3 = experiment: Cell proliferation, Cell Titer-Glo, BaF3; assay type: cell-based; conditions: Mus musculus, incubated for 72 hours
Protocol: as §1, §2

[12] = tested on: OCI-AML-3 (expressing FLT3 A680V mutant gene); experiment: Cell proliferation, Cell Titer-Glo, OCI-AML3; assay type: cell-based; conditions: Homo sapiens, incubated for 72 hours
Protocol: as §1, §2

| IC50 ([1]; Mus musculus, 72 h) [nM] | IC50 [2] [nM] | IC50 [3] [nM] | IC50 [5] [nM] | IC50 [6] [nM] | IC50 ([10]; Homo sapiens, U-937, 72 h) [nM] | IC50 [11] [nM] | IC50 (pro-B cell BaF3) [nM] | IC50 [12] [nM] | SMILES | IC50 (BTK protein kinase) [nM] | IC50 [4] [nM] | IC50 [7] [nM] | IC50 [8] [nM] | IC50 [9] [nM] | IC50 [1] [nM] | IC50 [10] [nM] |
| --- | --- | --- | --- | --- | --- | --- | --- | --- | --- | --- | --- | --- | --- | --- | --- | --- |
| < 0.3 | – | – | – | < 0.3 | – | – | 1900 | – | CN[C@H](CC(C)C)C(=O)NC1CCC(n2nc(-c3ccc(Oc4ccccc4)cc3)c3c(N)ncnc32)CC1 (stereo partly drawn) [Compound 92, (R)-N-(4-(4-amino-(4-phenoxyphenyl)-1H-pyrazolo[3,4-d]pyrimidin-1-yl)cyclohexyl)-4-methyl-2-(methylamino)pentanamide hydrochloride] | – | < 0.3 | – | – | < 0.3 | – | – |
| 120 | 760 | 2300 | 4710 | 60 | – | 3400 | 8430 | – | NC(=O)CC[C@@H](N)C(=O)N1CCC[C@@H](n2nc(-c3ccc(Oc4ccccc4)cc3)c3c(N)ncnc32)C1 [Compound 57] | – | – | 540 | – | – | – | – |
| 41 | 230 | 1200 | 890 | 83 | – | 3500 | 8420 | – | CN(C)CC(=O)N1CC[C@@H](n2nc(-c3ccc(Oc4ccccc4)cc3)c3c(N)ncnc32)C1 [Compound 65] | – | – | 360 | – | – | – | – |
| 80 | 480 | 90 | 1300 | 175 | – | 2500 | 7590 | – | NCC(=O)N1CC[C@@H](n2nc(-c3ccc(Oc4ccccc4)cc3)c3c(N)ncnc32)C1 [Compound 64] | – | – | 9.8 | – | – | – | – |
| 70 | – | – | – | 280 | 1060 | – | – | 620 | CN1CCN(Cc2ccc(C(=O)N3CCC[C@@H](n4nc(-c5ccc(Oc6ccccc6)cc5)c5c(N)ncnc54)C3)cc2)CC1 [Compound 35, (R)-(3-(4-amino-(4-phenoxyphenyl)-1H-pyrazolo[3,4-d]pyrimidin-1-yl)piperidin-1-yl)(4-((4-methylpiperazin-1-yl)methyl)phenyl)methanone] | – | – | – | – | – | – | – |
| 390 | – | – | – | 750 | 5680 | – | – | 8610 | NCCC(=O)N1CCC[C@@H](n2nc(-c3ccc(Oc4ccccc4)cc3)c3c(N)ncnc32)C1 [Compound 46] | – | – | – | – | – | – | – |
| 260 | – | – | – | 2400 | > 10000 | – | – | > 10000 | CCC(C)(C)C(=O)N1CCC[C@@H](n2nc(-c3ccc(Oc4ccccc4)cc3)c3c(N)ncnc32)C1 [Compound 50] | – | – | – | – | – | – | – |
| 390 | – | – | – | 1900 | > 10000 | – | – | > 10000 | Nc1ncnc2c1c(-c1ccc(Oc3ccccc3)cc1)nn2[C@@H]1CCCN(C(=O)C(Cl)(Cl)Cl)C1 [Compound 42] | – | – | – | – | – | – | – |
| 770 | – | – | – | 3400 | > 10000 | – | – | > 10000 | CC(C)CC(=O)N1CCC[C@@H](n2nc(-c3ccc(Oc4ccccc4)cc3)c3c(N)ncnc32)C1 [Compound 53] | – | – | – | – | – | – | – |
| 300 | 1360 | – | 770 | 520 | – | – | 4370 | – | COC(=O)N1CCC(C(=O)N2CCC[C@@H](n3nc(-c4ccc(Oc5ccccc5)cc4)c4c(N)ncnc43)C2)CC1 [Compound 60, (R)-methyl 4-(3-(4-amino-(4-phenoxyphenyl)-1H-pyrazolo[3,4-d]pyrimidin-1-yl)piperidine-1-carbonyl)piperidin-1-carboxylate] | – | – | – | – | – | – | – |
| 1400 | – | – | – | 6500 | > 10000 | – | – | > 10000 | Nc1ncnc2c1c(-c1ccc(Oc3ccccc3)cc1)nn2[C@@H]1CCCN(C(=O)C2CC2)C1 [Compound 1, (R)-(3-(4-amino-(4-phenoxyphenyl)-1H-pyrazolo[3,4-d]pyrimidin-1-yl)piperidin-1-yl)(cyclopropyl)methanone] | – | – | – | – | – | – | – |
| 70 | – | – | – | 350 | > 10000 | – | – | 3560 | CC(=O)N1CCC[C@@H](n2nc(-c3ccc(Oc4ccccc4)cc3)c3c(N)ncnc32)C1 [Compound 34] | – | – | – | – | – | – | – |
| 82 | – | – | – | 410 | > 10000 | – | – | 7890 | Nc1ncnc2c1c(-c1ccc(Oc3ccccc3)cc1)nn2[C@@H]1CCCN(C(=O)CC2CC2)C1 [Compound 52] | – | – | – | – | – | – | – |
| 160 | – | – | – | 760 | 4450 | – | – | 6610 | CCCS(=O)(=O)N1CCC[C@@H](n2nc(-c3ccc(Oc4ccccc4)cc3)c3c(N)ncnc32)C1 [Compound 40, (R)-3-(4-phenoxyphenyl)-1-(1-(propylsulfonyl)piperidin-3-yl)-1H-pyrazolo[3,4-d]pyrimidin-4-amine] | – | – | – | – | – | – | – |
| 150 | – | – | – | 610 | > 10000 | – | – | > 10000 | Nc1ncnc2c1c(-c1ccc(Oc3ccccc3)cc1)nn2[C@@H]1CCCN(C(=O)CC(F)(F)F)C1 [Compound 51] | – | – | – | – | – | – | – |
| 150 | – | – | – | 230 | > 10000 | – | – | 1090 | CC(Br)C(=O)N1CCC[C@@H](n2nc(-c3ccc(Oc4ccccc4)cc3)c3c(N)ncnc32)C1 (stereo partly drawn) [Compound 37] | – | – | – | – | – | – | – |
| 41 | 1900 | 390 | 910 | 120 | – | 5300 | 2150 | – | CC(C)C[C@@H](N)C(=O)N1CC[C@@H](n2nc(-c3ccc(Oc4ccccc4)cc3)c3c(N)ncnc32)C1 [Compound 28, (R)-2-amino-1-((R)-3-(4-amino-(4-phenoxyphenyl)-1H-pyrazolo[3,4-d]pyrimidin-1-yl)pyrrolidin-1-yl)-4-methylpentan-1-one] | – | – | 83 | – | – | – | – |

| SMILES | IC50 ([1]; Mus musculus, 72 h) [nM] | IC50 [2] [nM] | IC50 [3] [nM] | IC50 [5] [nM] | IC50 [6] [nM] | IC50 ([10]; Homo sapiens, U-937, 72 h) [nM] | IC50 [11] [nM] | IC50 (pro-B cell BaF3) [nM] | IC50 [12] [nM] | IC50 (BTK protein kinase) [nM] | IC50 [4] [nM] | IC50 [7] [nM] | IC50 [8] [nM] | IC50 [9] [nM] | IC50 [1] [nM] | IC50 [10] [nM] |
| --- | --- | --- | --- | --- | --- | --- | --- | --- | --- | --- | --- | --- | --- | --- | --- | --- |
| CC(C)C[C@H](N)C(=O)N1CCC[C@@H](n2nc(-c3ccc(Oc4ccccc4)cc3)c3c(N)ncnc32)C1 [Compound 12, (S)-2-amino-1-((R)-3-(4-amino-(4-phenoxyphenyl)-1H-pyrazolo[3,4-d]pyrimidin-1-yl)piperidin-1-yl)-4-methylpentan-1-one] | 45 | 46 | 600 | 520 | 64 | 1600 | 1000 | – | – | 349 | 77 | 960 | 1500 | 48 | – | – |
| CC(O)[C@@H](N)C(=O)N1CCC[C@@H](n2nc(-c3ccc(Oc4ccccc4)cc3)c3c(N)ncnc32)C1 (stereo partly drawn) [Compound 44, (R)-2-amino-1-((R)-3-(4-amino-(4-phenoxyphenyl)-1H-pyrazolo[3,4-d]pyrimidin-1-yl)piperidin-1-yl)-3-hydroxybutanone] | 22 | 72 | 119 | – | 64 | > 10000 | – | 3900 | 3760 | 53 | 59 | 1000 | 2760 | – | – | – |
| C[C@@H](N)C(=O)N1CCC[C@@H](n2nc(-c3ccc(Oc4ccccc4)cc3)c3c(N)ncnc32)C1 [Compound 47] | – | 34 | 56 | – | 54 | – | – | 3800 | 2700 | 27 | 48 | 680 | 2460 | – | 22 | > 10000 |
| Nc1ncnc2c1c(-c1ccc(Oc3ccccc3)cc1)nn2[C@@H]1CCCN(C(=O)[C@@H](N)Cc2c[nH]cn2)C1 [Compound 6, (S)-2-amino-1-((R)-3-(4-amino-(4-phenoxyphenyl)-1H-pyrazolo[3,4-d]pyrimidin-1-yl)piperidin-1-yl)-3-(1H-imidazol-4-yl)propan-1-one] | 1100 | – | – | – | – | > 10000 | – | – | – | 128 | – | – | – | – | – | – |
| Nc1ncnc2c1c(-c1ccc(Oc3ccccc3)cc1)nn2[C@@H]1CCCN(C(=O)[C@@H](N)Cc2c[nH]c3ccccc23)C1 [Compound 9, (S)-2-amino-1-((R)-3-(4-amino-(4-phenoxyphenyl)-1H-pyrazolo[3,4-d]pyrimidin-1-yl)piperidin-1-yl)-3-(1H-indol-3-yl)propan-1-one] | – | – | – | – | – | > 10000 | – | – | – | 49 | – | – | – | – | – | – |
| Nc1ncnc2c1c(-c1ccc(Oc3ccccc3)cc1)nn2[C@@H]1CCCN(C(=O)[C@H](N)CO)C1 [Compound 48] | 46 | 52 | – | – | 61 | > 10000 | – | 6500 | 4360 | 28 | 79 | 1100 | 3520 | – | – | – |
